Test results as given in patent US7919470B2, “Glycopeptide composition with improved antibiotic activity” (Xellia Pharmaceuticals APS, priority 2003, dated 2011).
Values joined by “and” are separate entries in the source; they are usually repeats but may differ in a detail not shown here. Identical values can stand only once.

Key:
[1] = tested on: Staphylococcus aureus ATCC 6538; assay: Microbiological potency by agar diffusion; type: cell-based; conditions: for Potency IU/mg powder: agar diffusion, Example 1 spiking experiments; for Potential potency IU/mg (TA2 + TA3-1): potency of the powder related to its HPLC content of TA2 + TA3-1
Method: Accordingly, in one embodiment a Teicoplanin composition as described herein, has a higher antibiotic activity than a corresponding Teicoplanin composition that has a % (mg TA3)/(mg TA3+TA2) of 6.5%, where the antibiotic activity is measured by a microbiological agar diffusion assay using Staphylococcus aureus ATCC 6538 as test strain and the measured potential potency (IU per mg TA2+TA3/g composition) is used to calculate the antibiotic activity.
(§1) Potency of Teicoplanin TA2, TA3-1 alone or in combination was determined by agar diffusion assays. Furthermore, the antimicrobial effect of pure and spiked products was investigated through the determination of the minimum inhibitory concentration (MIC) by a modified “MIC” test in micro titer trays.
The potency test is carried out according to the assay described below. The assay method generally corresponds to USP 25 and Ph.Eur 4th ed., but differs from both with respect to test strain and from the USP with respect to agar holes (ponds) as preferred to cylinders. The test is carried out as a 2,2 design as described in section <111> of the USP.
Stock solutions of standards and samples were prepared to approximately 900 IU/ml. The Teicoplanin standard contained approximately 25.0 mg in 4.0 ml water and buffer ad 25.0 ml. The samples of Teicoplanin compositions contained approximately 25.0 mg in 4.0 ml water and buffer ad 25.0 ml. The amount of sample was adjusted according to the actual amount of standard weighed. Finally, the standard and sample were diluted with buffer to the following concentrations:
The standard or sample was applied to the plates in accordance with an 8×8 Latin square design. Immediately after application, place the plates in the incubator at 34.0° C.±2° C., for 16-18 hours.
The results are analyzed by reading the zone diameters carefully with a 10× magnification and a precision of 0.1 mm. Statistical evaluation: for calculation and validation, follow the guidelines set out in Ph. Eur. and USP, using a computer program for all calculations.
In the spiking experiments, the amount of the investigated sample (amount of powder weighed) was reduced and replaced by a corresponding amount of spiking material or stock solutions were mixed in defined ratios.
(§2) Potency of teicoplanin TA2, TA3-1 alone or in combinations was determined by agar diffusion assays as described in example 1. Modified MIC-values in microtitre trays were determined as described in example 1.

S. aureus ATCC 6538 = assay: Modified MIC test in micro titer trays; type: cell-based, Staphylococcus aureus; conditions: for MIC: 24 hours, 37° C.
Method: as §1
Pure TA3-1, (Teicoplanin Material B 96% TA2-X, 4% TA3-1) and mixtures thereof were used. The test strain used was S. aureus ATCC 6538 in final concentrations of 5×10^5/ml and 5×10^4/ml respectively. The test was carried out in micro titer trays as a modification of an ordinary MIC test. Instead of using two-fold dilutions, 0.40-1.20 μg/ml with 0.20 μl divisions and 1.0-4.0 μl/ml with 1.0 μl divisions was used. The trays were incubated at 37° C. The wells were examined after 24 hours and any visible growth was noted.
In order to strengthen the evidence some experiments were performed with a modified antimicrobial analysis of Teicoplanin, spiked with different amounts of TA3-1. It was carried out in liquid medium in contrast to the agar diffusion tests and determined the MIC values. The results are summarized in Table 4, (“MIC”-values of Teicoplanin and/or TA3-1 on S. aureus ATCC6538).
as §2

Compound | Potency IU/mg powder [1] | Potential potency IU/mg (TA2 + TA3-1) [1] | MIC (S. aureus ATCC 6538; 5 × 10^4/ml S. aureus) [µg/mL] | MIC (S. aureus ATCC 6538; 5 × 10^5/ml S. aureus) [µg/mL] | Antimicrobial effect on S. aureus compared with Teicoplanin (S. aureus ATCC 6538; Example 1, MIC determination) | MIC value of pure TA3-1 relative to Targocid alone (S. aureus ATCC 6538; Example 2, FIG. 6, MIC in μg powder/ml solution) | Antimicrobial effect on S. aureus relative to teicoplanin TA2 (S. aureus ATCC 6538; Example 2, MIC determination) | Potency compared with Targocid ([1]; Example 2, agar diffusion)
CC(=O)N[C@H]1[C@H](O[C@@H]2c3ccc(c(Cl)c3)Oc3cc4cc(c3O[C@@H]3O[C@H](CO)[C@@H](O)[C@H](O)[C@H]3NC(=O)CCCCCCC(C)C)Oc3ccc(cc3Cl)C[C@H]3NC(=O)[C@H](N)c5ccc(O)c(c5)Oc5cc(O)cc(c5)[C@H](NC3=O)C(=O)N[C@H]4C(=O)N[C@H]3C(=O)N[C@@H]2C(=O)N[C@H](C(=O)O)c2cc(O)cc(O[C@H]4O[C@H](CO)[C@@H](O)[C@H](O)[C@@H]4O)c2-c2cc3ccc2O)O[C@H](CO)[C@@H](O)[C@@H]1O [TA2-2, Teicoplanin A2-2] | 807 IU/mg powder and 776 IU/mg powder | 1017 IU/mg (TA2 + TA3-1) and 994 IU/mg (TA2 + TA3-1) |  |  |  |  |  | 
CC(=O)N[C@H]1[C@H](O[C@@H]2c3ccc(c(Cl)c3)Oc3cc4cc(c3O)Oc3ccc(cc3Cl)C[C@H]3NC(=O)[C@H](N)c5ccc(O)c(c5)Oc5cc(O)cc(c5)[C@H](NC3=O)C(=O)N[C@H]4C(=O)N[C@H]3C(=O)N[C@@H]2C(=O)N[C@H](C(=O)O)c2cc(O)cc(O[C@H]4O[C@H](CO)[C@@H](O)[C@H](O)[C@@H]4O)c2-c2cc3ccc2O)O[C@H](CO)[C@@H](O)[C@@H]1O [TA3-1, Teicoplanin A3-1] | 570 IU/mg powder | 687 IU/mg (TA2 + TA3-1) | 2 to 3 | 2 to 3 | much lower | 4-5 times higher | 4-5 | much lower potency
